Experimental data published in patent US8846951B2 (AbbVie Inc., priority 2009, dated 2014).
Where two headings read alike, the source gives them in different places.

How the values were obtained:
5HT2B receptors = target: T1, 5HT2B receptors (Homo sapiens, UniProt P41595); assay: Human 5-HT2B functional high throughput screening assay in CHO-K1 cells (calcium flux); type: cell-based; conditions: for EC50: CHO-K1 cells, calcium flux
T1 construct: expressed in transfected cells; host or cells: CHO-K1 cells
In short: (§1)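 FLIPR calcium readout, ex 480/em 530 nm, 25 °C, 3 min post-addition; agonist response normalized to serotonin, 4-parameter fit → EC50, Emax (% serotonin). Cells: frozen CHO-K1 stable lines, serum-free overnight, Ca4 dye + 2.5 mM probenecid, 60 min RT dark.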

5HT2C receptors = target: T2, 5HT2C receptors (Homo sapiens, UniProt P28335); assay: Human 5-HT2C functional high throughput screening assay in CHO-K1 cells (calcium flux); type: cell-based; design: expressed in transfected cells; host or cells: CHO-K1 cells; conditions: for Emax: CHO-K1, 5-HT2C, maximum functional response as percentage relative to the effect of serotonin; for EC50: CHO-K1 cells, calcium flux
T2 sequence (P28335 33-458): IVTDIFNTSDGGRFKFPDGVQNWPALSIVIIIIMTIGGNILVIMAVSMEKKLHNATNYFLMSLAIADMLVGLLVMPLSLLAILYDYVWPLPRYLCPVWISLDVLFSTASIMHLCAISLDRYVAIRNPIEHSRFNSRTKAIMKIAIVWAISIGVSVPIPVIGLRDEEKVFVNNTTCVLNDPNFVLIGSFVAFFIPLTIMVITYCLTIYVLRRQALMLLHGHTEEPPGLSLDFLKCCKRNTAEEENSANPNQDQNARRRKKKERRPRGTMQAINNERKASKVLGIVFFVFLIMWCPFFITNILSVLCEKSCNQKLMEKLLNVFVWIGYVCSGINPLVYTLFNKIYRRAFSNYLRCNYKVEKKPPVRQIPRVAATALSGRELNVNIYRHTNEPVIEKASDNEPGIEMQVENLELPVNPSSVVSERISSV
In short: as §1

[1] = 5-HT2B agonist activity, read-out: EC50
[2] = 5-HT2C agonist activity, read-out: EC50
[3] = 5-HT2B, maximum functional response as percentage relative to the effect of serotonin
[4] = CHO-K1, 5-HT2B, maximum functional response as percentage relative to the effect of serotonin, read-out: Emax

T1 sequence (P41595 whole entry): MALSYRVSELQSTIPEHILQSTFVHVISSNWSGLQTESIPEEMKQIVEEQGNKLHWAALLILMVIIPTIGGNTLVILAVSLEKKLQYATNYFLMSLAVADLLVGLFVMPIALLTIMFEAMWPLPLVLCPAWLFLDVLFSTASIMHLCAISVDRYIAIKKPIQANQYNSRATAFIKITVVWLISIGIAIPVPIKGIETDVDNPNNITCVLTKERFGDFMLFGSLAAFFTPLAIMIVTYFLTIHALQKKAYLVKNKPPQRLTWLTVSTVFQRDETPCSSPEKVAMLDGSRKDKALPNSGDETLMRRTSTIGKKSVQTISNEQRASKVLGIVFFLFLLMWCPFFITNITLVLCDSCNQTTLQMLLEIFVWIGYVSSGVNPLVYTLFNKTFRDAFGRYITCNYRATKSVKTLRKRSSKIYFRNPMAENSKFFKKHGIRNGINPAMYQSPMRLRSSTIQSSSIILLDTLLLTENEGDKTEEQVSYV

EC50 (5HT2B receptors; [1]) [nM] | EC50 (5HT2C receptors; [2]) [nM] | Emax (5HT2B receptors; [3]) | Emax (5HT2C receptors; read-out: Emax) [%] | Emax (5HT2B receptors; [4]) [%] | Compound | Emax (5HT2B receptors; CHO-K1) [%] | EC50 (5HT2B receptors; EC50, 5-HT2B agonist activity) [nM] | Emax (5HT2C receptors) [%] | EC50 (5HT2C receptors; EC50, 5-HT2C agonist activity) [nM]
 |  |  |  |  | CN1CC[C@@H]2CNC[C@H]2c2ccccc21 (relative stereo) [Example 327, Trans-6-methyl-1,2,3,3a,4,5,6,10b-octahydropyrrolo[3,4-d][1]benzazepine] | 75 | 200 | 95 | 10
 |  |  |  |  | CN1C[C@H]2CCN(C)c3ccccc3[C@@H]2C1 (relative stereo) [Example 330, Trans-2,6-dimethyl-1,2,3,3a,4,5,6,10b-octahydropyrrolo[3,4-d][1]benzazepine] | 30 | 300 | 90 | 70
> 10000 | 200 | inactive | 95 |  | CN1C[C@H]2CNC(=O)c3cc(-c4ccc(F)cc4F)ccc3[C@@H]2C1 (relative stereo) [Example 331, Trans-8-(2,4-difluorophenyl)-2-methyl-2,3,3a,4,5,10b-hexahydropyrrolo[3,4-d][2]benzazepin-6(1H)-one] |  |  |  | 
 |  |  |  |  | Brc1cccc2c1OCC[C@H]1CNC[C@@H]21 (relative stereo) [Example 332, Cis-7-bromo-2,3,3a,4,5,10b-hexahydro-1H-[1]benzoxepino[4,5-c]pyrrole] | 20 | 30 | 90 | 0.9
> 10000 | 70 | inactive | 90 |  | O=S(=O)(c1ccc(Cl)c(Cl)c1)N1Cc2cccnc2[C@@H]2CNC[C@H]2C1 (relative stereo) [Example 334, Trans-6-[(3,4-dichlorophenyl)sulfonyl]-5,6,7,7a,8,9,10,10a-octahydropyrido[3,2-c]pyrrolo[3,4-e]azepine] |  |  |  | 
900 | 20 |  | 85 | 25 | O=S(=O)(c1ccc(OC(F)F)cc1)N1Cc2cccnc2[C@@H]2CNC[C@H]2C1 (relative stereo) [Example 335, Trans-6-{[4-(difluoromethoxy)phenyl]sulfonyl}-5,6,7,7a,8,9,10,10a-octahydropyrido[3,2-e]pyrrolo[3,4-e]azepine] |  |  |  | 
600 | 90 |  | 90 | 70 | COc1cccc(S(=O)(=O)N2Cc3cccnc3[C@@H]3CNC[C@H]3C2)c1 (relative stereo) [Example 336, Trans-6-[(3-methoxyphenyl)sulfonyl]-5,6,7,7a,8,9,10,10a-octahydropyrido[3,2-e]pyrrolo[3,4-e]azepine] |  |  |  | 
 |  |  |  |  | O=S(=O)(c1cccc(F)c1)N1Cc2cccnc2[C@@H]2CNC[C@H]2C1 (relative stereo) [Example 337, Trans-6-[(3-fluorophenyl)sulfonyl]-5,6,7,7a,8,9,10,10a-octahydropyrido[3,2-c]pyrrolo[3,4-e]azepine] | 30 | 1000 | 90 | 90
 |  |  |  |  | O=S(=O)(c1ccccc1)N1Cc2cccnc2[C@@H]2CNC[C@H]2C1 (relative stereo) [Example 338, Trans-6-(phenylsulfonyl)-5,6,7,7a,8,9,10,10a-octahydropyrido[3,2-c]pyrrolo[3,4-e]azepine] | 20 | 800 | 80 | 100
 |  |  |  |  | Cc1ccccc1S(=O)(=O)N1Cc2cccnc2[C@@H]2CNC[C@H]2C1 (relative stereo) [Example 341, Trans-6-[(2-methylphenyl)sulfonyl]-5,6,7,7a,8,9,10,10a-octahydropyrido[3,2-c]pyrrolo[3,4-e]azepine] | 65 | 300 | 90 | 90
300 | 60 |  | 90 | 40 | Cc1c(Cl)cccc1S(=O)(=O)N1Cc2cccnc2[C@@H]2CNC[C@H]2C1 (relative stereo) [Example 342, Trans-6-[(3-chloro-2-methylphenyl)sulfonyl]-5,6,7,7a,8,9,10,10a-octahydropyrido[3,2-c]pyrrolo[3,4-e]azepine] |  |  |  | 
1000 | 300 |  | 85 | 60 | COc1ccc(OC)c(S(=O)(=O)N2Cc3cccnc3[C@@H]3CNC[C@H]3C2)c1 (relative stereo) [Example 343, Trans-6-[(2,5-dimethoxyphenyl)sulfonyl]-5,6,7,7a,8,9,10,10a-octahydropyrido[3,2-c]pyrrolo[3,4-e]azepine] |  |  |  | 
> 10000 | 90 | inactive | 85 |  | CC(C)(C)c1ccc(S(=O)(=O)N2Cc3cccnc3[C@@H]3CNC[C@H]3C2)cc1 (relative stereo) [Example 344, Trans-6-[(4-tert-butylphenyl)sulfonyl]-5,6,7,7a,8,9,10,10a-octahydropyrido[3,2-c]pyrrolo[3,4-e]azepine] |  |  |  | 
200 | 400 |  | 80 | 90 | O=S(=O)(c1cccc(C(F)(F)F)c1)N1Cc2cccnc2[C@@H]2CNC[C@H]2C1 (relative stereo) [Example 345, Trans-6-{[3-(trifluoromethyl)phenyl]sulfonyl}-5,6,7,7a,8,9,10,10a-octahydropyrido[3,2-c]pyrrolo[3,4-e]azepine] |  |  |  | 
> 10000 | 100 | inactive | 85 |  | COc1ccc(S(=O)(=O)N2Cc3cccnc3[C@@H]3CNC[C@H]3C2)cc1 (relative stereo) [Example 346, Trans-6-[(4-methoxyphenyl)sulfonyl]-5,6,7,7a,8,9,10,10a-octahydropyrido[3,2-c]pyrrolo[3,4-e]azepine] |  |  |  | 

Compound | EC50 (5HT2B receptors; [1]) [nM] | EC50 (5HT2C receptors; [2]) [nM] | Emax (5HT2B receptors; [3]) | Emax (5HT2C receptors; read-out: Emax) [%] | Emax (5HT2B receptors; [4]) [%] | Emax (5HT2B receptors; CHO-K1) [%] | EC50 (5HT2B receptors; EC50, 5-HT2B agonist activity) [nM] | Emax (5HT2C receptors) [%] | EC50 (5HT2C receptors; EC50, 5-HT2C agonist activity) [nM]
CC(=O)N1CC[C@@H]2CNC[C@H]2c2ccccc21 (relative stereo) [Example 328, 1-[Trans-2,3,3a,4,5,10b-hexahydropyrrolo[3,4-d][1]benzazepin-6(1H)-yl]ethanone] | 4000 | 900 |  |  |  | 60 |  | 90 | 
c1ccc(CN2CC[C@@H]3CNC[C@H]3c3ccccc32)cc1 (relative stereo) [Example 329, Trans-6-benzyl-1,2,3,3a,4,5,6,10b-octahydropyrrolo[3,4-d][1]benzazepine] | 2000 | 1000 |  |  |  | 15 |  | 70 | 
CC(C)C(=O)N1CC[C@@H]2CNC[C@H]2c2ccccc21 (relative stereo) [Example 333, 1-[Trans-2,3,3a,4,5,10b-hexahydropyrrolo[3,4-d][1]benzazepin-6(1H)-yl]-2-methylpropan-1-one] | 2000 | 300 |  |  |  | 40 |  | 90 | 
O=S(=O)(c1ccc(Cl)s1)N1Cc2cccnc2[C@@H]2CNC[C@H]2C1 (relative stereo) [Example 339, Trans-6-[(5-chloro-2-thienyl)sulfonyl]-5,6,7,7a,8,9,10,10a-octahydropyrido[3,2-c]pyrrolo[3,4-e]azepine] |  |  | inactive |  |  |  | > 10000 | 110 | 30
O=S(=O)(c1ccc(Cl)cc1)N1Cc2cccnc2[C@@H]2CNC[C@H]2C1 (relative stereo) [Example 340, Trans-6-[(4-chlorophenyl)sulfonyl]-5,6,7,7a,8,9,10,10a-octahydropyrido[3,2-c]pyrrolo[3,4-e]azepine] |  |  | inactive |  |  |  | > 10000 | 90 | 70
